The values below come from patent US9139523B2, “5-HT2B receptor antagonists” (Janssen Pharmaceutica, NV, priority 2010, dated 2015).

Assay [1] addresses T1, D2L (Homo sapiens, UniProt P14416).
T1 construct: expressed in transfected cells; host or cells: CHO (membrane fraction)
Briefly: Competitive radioligand binding, D2L. The conditions noted are these: CHO membranes, 3H-spiperone 0.2 nM; for IC50: read-out: pIC50 D2L (converted). As for the experimental part:
(§1) Competitive radioligand binding assays were used to determine the affinity of the test compounds for a particular receptor. Various concentrations of the non-labelled test compound were added to the incubation mixture with the membrane fraction, containing the receptor of interest, and a fixed low concentration (nM) of the radioligand. During the incubation the radioligand bound to the receptor, but this was inhibited by the non-labelled test compound in proportion to its binding affinity and concentration.
(§2) Cell lines were established that stably express the human variant of the receptor under investigation after transfection with the appropriate cDNA (Table 1). Transfected cells were grown under standard culture conditions, and membrane fractions were obtained upon centrifugation and homogenisation of the cells. Optimal membrane dilutions for binding studies were determined and aliquots were stored at −70° C. until use. In a 96-well plate format, the appropriate radioligand was added to the membrane preparation containing the receptor under investigation. Compound solutions were prepared in DMSO, and diluted 100-fold into the multiwell plate to a final test concentration of 10^−9 to 10^−5 M. After incubation with the test compound, the unbound radioligand was removed by filtration on G/F filters with a Filtermate 96. Microscint™ was added to the washed filter plates and the radioactivity bound to the receptor was measured by liquid scintillation counting in a TopCount (Packard). To measure the Non-Specific Binding (NSB), a high concentration of the non-radiolabeled ligand was added to wells containing the membrane fraction and the radioligand.
(§3) Using in house developed software, a best-fit curve was fitted by a minimum sum of squares method to the plot of % inhibition vs. concentration of the test compound. From this, the pIC50 value (inhibitory concentration causing 50% displacement of specific binding) was determined, as well as an estimate of the slope of the plot (Hill coefficient).

Assay [2] deals with T2, Alpha1A (Homo sapiens, UniProt P35348).
T2 construct: expressed in transfected cells; host or cells: CHO (membrane fraction)
T2 sequence (P35348 1-466): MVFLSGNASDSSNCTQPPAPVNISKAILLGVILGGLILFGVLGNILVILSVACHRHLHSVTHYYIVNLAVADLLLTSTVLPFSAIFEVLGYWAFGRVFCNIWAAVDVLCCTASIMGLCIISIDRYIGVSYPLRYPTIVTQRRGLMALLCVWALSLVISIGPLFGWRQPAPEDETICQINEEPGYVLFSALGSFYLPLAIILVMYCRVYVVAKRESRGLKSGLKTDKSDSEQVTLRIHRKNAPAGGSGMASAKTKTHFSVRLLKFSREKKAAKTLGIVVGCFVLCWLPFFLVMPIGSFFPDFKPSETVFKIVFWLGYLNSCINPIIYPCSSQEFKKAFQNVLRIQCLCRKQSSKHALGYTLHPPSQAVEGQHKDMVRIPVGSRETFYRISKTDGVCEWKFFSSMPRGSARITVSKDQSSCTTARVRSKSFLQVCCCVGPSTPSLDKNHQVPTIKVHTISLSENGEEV
Put plainly: Competitive radioligand binding, Alpha1A. The conditions noted are these: CHO membranes, 3H-prazosin 0.25 nM; read-out: pIC50 Alpha1A (converted). The method, then:
as §1, §2, §3

Assay [3] concerns the target T3, hERG (Homo sapiens, UniProt Q12809).
T3 construct: expressed in transfected cells; host or cells: HEK293 (membrane fraction)
Briefly: Competitive radioligand binding, hERG. To be noted: HEK293 membranes, 3H-dofetilide 5 nM. The method, then:
as §1, §2
(§4) From this, the pIC50 value (inhibitory concentration causing 50% displacement of specific binding) was determined, as well as an estimate of the slope of the plot (Hill coefficient).

Assay [4] has as its target T4, 5HT1A (Homo sapiens, UniProt P08908).
T4 construct: expressed in transfected cells; host or cells: HEK293 (membrane fraction)
T4 sequence (P08908 1-422): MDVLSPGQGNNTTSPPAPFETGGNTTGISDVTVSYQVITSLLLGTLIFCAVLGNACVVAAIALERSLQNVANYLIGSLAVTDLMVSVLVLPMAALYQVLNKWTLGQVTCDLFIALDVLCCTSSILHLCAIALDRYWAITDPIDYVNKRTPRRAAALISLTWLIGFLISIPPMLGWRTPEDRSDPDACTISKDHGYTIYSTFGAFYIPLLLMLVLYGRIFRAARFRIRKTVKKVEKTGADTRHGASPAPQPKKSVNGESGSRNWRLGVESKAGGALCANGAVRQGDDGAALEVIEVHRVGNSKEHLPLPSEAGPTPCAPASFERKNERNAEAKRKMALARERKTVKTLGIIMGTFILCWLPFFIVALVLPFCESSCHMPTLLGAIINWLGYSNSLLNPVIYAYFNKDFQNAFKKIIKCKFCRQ
Put plainly: Competitive radioligand binding, 5HT1A. The conditions noted are these: HEK293 membranes, 3H-8-OH-DPAT 0.5 nM; read-out: pIC50 5HT1A (converted). The method, then:
as §1, §2, §3

The target in assay [5] is T5, Alpha2C (Homo sapiens, UniProt P18825).
T5 construct: expressed in transfected cells; host or cells: CHO (membrane fraction)
T5 sequence (P18825 1-462): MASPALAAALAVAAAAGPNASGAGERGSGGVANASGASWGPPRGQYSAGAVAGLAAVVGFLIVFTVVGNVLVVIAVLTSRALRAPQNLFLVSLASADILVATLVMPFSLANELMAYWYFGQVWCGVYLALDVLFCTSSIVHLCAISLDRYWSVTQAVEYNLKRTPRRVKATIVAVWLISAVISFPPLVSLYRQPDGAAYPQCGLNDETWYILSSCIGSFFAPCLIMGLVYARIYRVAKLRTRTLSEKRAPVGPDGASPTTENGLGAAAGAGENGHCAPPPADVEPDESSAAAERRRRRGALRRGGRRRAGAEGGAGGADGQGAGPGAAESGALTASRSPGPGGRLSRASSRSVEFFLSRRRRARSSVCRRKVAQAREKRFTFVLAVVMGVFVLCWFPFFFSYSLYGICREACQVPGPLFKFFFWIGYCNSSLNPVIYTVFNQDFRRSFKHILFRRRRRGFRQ
Put plainly: Competitive radioligand binding, Alpha2C. The conditions noted are these: CHO membranes, 3H-rauwolscine 1 nM; for IC50: read-out: pIC50 Alpha2C (converted). As for the experimental part: as §1, §2, §4

The target of assay [6] is T6, Alpha2A (Homo sapiens, UniProt P08913).
T6 construct: expressed in transfected cells; host or cells: CHO (membrane fraction)
T6 sequence (P08913 1-465): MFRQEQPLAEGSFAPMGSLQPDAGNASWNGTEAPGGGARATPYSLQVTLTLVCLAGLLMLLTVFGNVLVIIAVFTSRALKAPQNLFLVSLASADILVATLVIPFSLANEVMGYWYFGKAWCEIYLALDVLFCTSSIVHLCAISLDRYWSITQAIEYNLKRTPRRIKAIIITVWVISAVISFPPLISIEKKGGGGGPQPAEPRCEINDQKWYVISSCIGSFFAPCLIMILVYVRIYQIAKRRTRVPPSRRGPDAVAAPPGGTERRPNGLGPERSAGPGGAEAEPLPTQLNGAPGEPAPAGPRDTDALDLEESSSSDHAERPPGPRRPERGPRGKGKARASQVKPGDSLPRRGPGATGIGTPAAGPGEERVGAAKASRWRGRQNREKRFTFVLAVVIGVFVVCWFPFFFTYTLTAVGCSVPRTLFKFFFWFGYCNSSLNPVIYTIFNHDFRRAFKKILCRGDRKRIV
Briefly: Competitive radioligand binding, Alpha2A. To be noted: CHO membranes, 3H-rauwolscine 1 nM; for IC50: read-out: pIC50 Alpha2A (converted). The method, then:
as §1, §2

Structures are written as SMILES.

T3 sequence (Q12809 whole entry): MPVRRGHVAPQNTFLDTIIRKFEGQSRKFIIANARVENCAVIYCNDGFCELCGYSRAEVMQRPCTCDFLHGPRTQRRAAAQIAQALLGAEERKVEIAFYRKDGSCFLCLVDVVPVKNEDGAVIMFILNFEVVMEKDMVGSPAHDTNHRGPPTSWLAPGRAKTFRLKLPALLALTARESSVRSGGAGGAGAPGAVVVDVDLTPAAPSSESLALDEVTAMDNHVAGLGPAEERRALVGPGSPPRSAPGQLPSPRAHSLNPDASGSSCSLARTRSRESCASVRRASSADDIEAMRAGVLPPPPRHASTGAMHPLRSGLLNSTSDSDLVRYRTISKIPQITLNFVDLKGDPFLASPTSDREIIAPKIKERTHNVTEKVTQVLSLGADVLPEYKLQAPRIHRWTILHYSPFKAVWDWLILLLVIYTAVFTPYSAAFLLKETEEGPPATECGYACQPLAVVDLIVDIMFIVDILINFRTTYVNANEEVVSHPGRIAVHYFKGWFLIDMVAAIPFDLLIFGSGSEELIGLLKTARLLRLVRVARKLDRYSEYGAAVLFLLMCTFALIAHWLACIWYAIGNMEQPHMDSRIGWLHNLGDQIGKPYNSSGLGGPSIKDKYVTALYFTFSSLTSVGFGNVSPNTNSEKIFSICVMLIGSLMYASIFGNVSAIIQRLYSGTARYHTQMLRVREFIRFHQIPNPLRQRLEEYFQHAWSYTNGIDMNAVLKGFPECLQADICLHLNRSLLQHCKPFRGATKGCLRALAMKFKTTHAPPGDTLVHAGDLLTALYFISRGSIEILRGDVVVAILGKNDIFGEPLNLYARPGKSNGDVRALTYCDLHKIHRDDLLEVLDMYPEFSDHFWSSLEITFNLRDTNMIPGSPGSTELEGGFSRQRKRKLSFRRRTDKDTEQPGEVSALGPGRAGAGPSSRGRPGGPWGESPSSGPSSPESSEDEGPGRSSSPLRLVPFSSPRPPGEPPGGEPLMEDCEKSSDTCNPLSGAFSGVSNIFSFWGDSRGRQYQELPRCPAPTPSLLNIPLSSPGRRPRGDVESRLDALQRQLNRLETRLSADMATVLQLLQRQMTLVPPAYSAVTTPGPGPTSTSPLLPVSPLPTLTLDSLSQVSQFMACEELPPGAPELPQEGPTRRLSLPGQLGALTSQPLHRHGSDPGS
T1 sequence (P14416 whole entry): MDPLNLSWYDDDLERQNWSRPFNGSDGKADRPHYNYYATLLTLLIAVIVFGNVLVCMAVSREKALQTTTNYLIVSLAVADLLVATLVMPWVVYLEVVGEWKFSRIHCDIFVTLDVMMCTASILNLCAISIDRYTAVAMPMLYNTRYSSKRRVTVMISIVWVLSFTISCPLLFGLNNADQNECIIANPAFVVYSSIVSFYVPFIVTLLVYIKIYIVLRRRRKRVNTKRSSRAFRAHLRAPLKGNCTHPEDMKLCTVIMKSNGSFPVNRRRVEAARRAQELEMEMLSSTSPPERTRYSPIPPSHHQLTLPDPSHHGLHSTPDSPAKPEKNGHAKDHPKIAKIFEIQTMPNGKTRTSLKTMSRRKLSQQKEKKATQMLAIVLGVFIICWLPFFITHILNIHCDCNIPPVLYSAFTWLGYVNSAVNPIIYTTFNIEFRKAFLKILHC

On to `COc1cc(N)c(Cl)cc1C(=O)N[C@@H]1CCN(CCCOc2ccc(F)cc2)C[C@H]1F` (racemic) [(±)-7, trans-4-amino-5-chloro-N-{3-fluoro-1-[3-(4-fluorophenoxy)-propyl]-piperidin-4-yl}-2-methoxybenzamide], for which the IC50 in assay [1] is 4.57 µM; in assay [2] it was over 10 µM; in assay [3], 0.234 µM; in assay [4], 1.82 µM; in assay [5], 0.955 µM; in assay [6], 3.63 µM.
For `COc1cc(N)c(Cl)cc1C(=O)N[C@H]1CCN(CCCOc2ccc(F)cc2)C[C@H]1F` (racemic) [(±)-12, cis-4-amino-5-chloro-N-{3-fluoro-1-[3-(4-fluorophenoxy)-propyl]-piperidin-4-yl}-2-methoxybenzamide], the IC50 is 4.68 µM in assay [1]; 0.447 µM in assay [2]; 0.316 µM in assay [3]; 4.17 µM in assay [4]; 2.09 µM in assay [5]; 4.79 µM in assay [6].
With `COc1cc(N)c(Cl)cc1C(=O)NC1CCN(CCCOc2ccc(F)cc2)CC1(F)F` (racemic) [(±)-17, 4-amino-5-chloro-N-{3,3-difluoro-1-[3-(4-fluorophenoxy)-propyl]-piperidin-4-yl}-2-methoxybenzamide], the IC50 in assay [1] was 10.5 µM; in assay [2], over 10 µM; in assay [3], 7.59 µM; in assay [4] it was 7.94 µM; in assay [5], over 10 µM; in assay [6], over 10 µM.
As to `COc1cc(N)c(Cl)cc1C(=O)N[C@@H]1CCN(CCCOc2ccc(F)cc2)C[C@H]1F` (single isomer, unassigned) [(+)-7, trans-4-amino-5-chloro-N-{3-fluoro-1-[3-(4-fluorophenoxy)-propyl]-piperidin-4-yl}-2-methoxybenzamide], the IC50 was 2.75 µM in assay [1]; 0.525 µM in assay [2]; 0.288 µM in assay [3]; 0.676 µM in assay [4]; over 10 µM in assay [5]; over 10 µM in assay [6].
Take `COc1cc(N)c(Cl)cc1C(=O)N[C@H]1CCN(CCCOc2ccc(F)cc2)C[C@H]1F` (single isomer, unassigned) [(+)-12, cis-4-amino-5-chloro-N-{3-fluoro-1-[3-(4-fluorophenoxy)-propyl]-piperidin-4-yl}-2-methoxybenzamide]: in assay [1], the “pIC50 D2L” value turned out to be 5.32. Further, the IC50 in assay [2] was 0.55 µM; in assay [3], 0.178 µM; in assay [4], 0.741 µM; in assay [5], 1.95 µM.
Take `COc1cc(N)c(Cl)cc1C(=O)N[C@@H]1CCN(CCCOc2ccc(F)cc2)C[C@H]1F` (single isomer, unassigned) [(−)-7, trans-4-amino-5-chloro-N-{3-fluoro-1-[3-(4-fluorophenoxy)-propyl]-piperidin-4-yl}-2-methoxybenzamide]: the IC50 in assay [1] is 7.94 µM; in assay [2], 0.398 µM; in assay [3], 0.316 µM; in assay [4], 1.1 µM; in assay [5] it was 1.17 µM; in assay [6] it was 7.76 µM.
For `COc1cc(N)c(Cl)cc1C(=O)N[C@H]1CCN(CCCOc2ccc(F)cc2)C[C@H]1F` (single isomer, unassigned) [(−)-12, cis-4-amino-5-chloro-N-{3-fluoro-1-[3-(4-fluorophenoxy)-propyl]-piperidin-4-yl}-2-methoxybenzamide], the IC50 is 4.79 µM in assay [1]; 0.331 µM in assay [2]; 0.191 µM in assay [3]; 1.86 µM in assay [4]; 5.89 µM in assay [5]; 8.13 µM in assay [6].
Regarding `COc1cc(N)c(Cl)cc1C(=O)NC1CCN(CCCOc2ccc(F)cc2)CC1(F)F` (single isomer, unassigned) [Compound (−)-17, 4-amino-5-chloro-N-{3,3-difluoro-1-[3-(4-fluorophenoxy)-propyl]-piperidin-4-yl}-2-methoxybenzamide], the “pIC50 D2L” value in assay [1] is under 5. The IC50 in assay [2] was 7.76 µM; in assay [4] it was over 10 µM. In addition, the “pIC50 hERG” value in assay [3] was under 5. Moreover, in assay [5], the “pIC50 Alpha2C” value is listed as under 5. The “pIC50 Alpha2A” value in assay [6] is under 5.
As for `COc1cc(N)c(Cl)cc1C(=O)NC1CCN(CCCOc2ccc(F)cc2)CC1(F)F` (single isomer, unassigned; (+)) [(+)-17, 4-amino-5-chloro-N-{3,3-difluoro-1-[3-(4-fluorophenoxy)-propyl]-piperidin-4-yl}-2-methoxybenzamide], the IC50 is over 10 µM in assay [1]; over 10 µM in assay [2]; over 10 µM in assay [3]; 5.62 µM in assay [4]; over 10 µM in assay [5]; over 10 µM in assay [6].
